In ChEMBL document CHEMBL1147193, “New 5-substituted thiazolo[3,2-b][1,2,4]triazol-6-ones: synthesis and anticancer evaluation” (2007):

Columns and labels:
Assay type in all cases: functional
EKVX = test: Growth inhibition of human EKVX cells after 48 hrs by SRB protein assay; details: for TGI: read-out: Log TGI (converted)
NCI-H23 = test: Growth inhibition of human NCI-H23 cells after 48 hrs by SRB protein assay; details: NCI-H23, 48 h; for TGI: read-out: Log TGI (converted)
MCF7 = test: Anticancer activity against human MCF7 cells assessed as growth of cells at 100 uM relative to untreated cells
SF-268 = test: Growth inhibition of human SF268 cells after 48 hrs by SRB protein assay; details: SF-268, 48 h; for TGI: read-out: Log TGI (converted)
OVCAR-8 = test: Growth inhibition of human OVCAR8 cells after 48 hrs by SRB protein assay; details: OVCAR-8, 48 h; for TGI: read-out: Log TGI (converted)
T47D = test: Growth inhibition of human T47D cells after 48 hrs by SRB protein assay; details: for TGI: read-out: Log TGI (converted)
[1] = Growth inhibition of human MDA-MB-231/ATCC cells after 48 hrs by SRB protein assay; details: MDA-MB-231, 48 h; for TGI: read-out: Log TGI (converted)
SNB-19 = test: Growth inhibition of human SNB19 cells after 48 hrs by SRB protein assay; details: SNB-19, 48 h; for TGI: read-out: Log TGI (converted)
RPMI-8226 = test: Growth inhibition of human RPMI8226 cells after 48 hrs by SRB protein assay; details: RPMI-8226, 48 h; for TGI: read-out: Log TGI (converted)
SN12C = test: Growth inhibition of human SN12C cells after 48 hrs by SRB protein assay; details: for TGI: read-out: Log TGI (converted)
OVCAR-3 = test: Growth inhibition of human OVCAR-3 cells after 48 hrs by SRB protein assay; details: OVCAR-3, 48 h; for TGI: read-out: Log TGI (converted)
Hs-578T = test: Growth inhibition of human HS578T cells after 48 hrs by SRB protein assay; details: for TGI: read-out: Log TGI (converted)
SNB-75 = test: Growth inhibition of human SNB75 cells after 48 hrs by SRB protein assay; details: SNB-75, 48 h
CAKI-1 = test: Growth inhibition of human CAKI1 cells after 48 hrs by SRB protein assay; details: CAKI-1, 48 h; for TGI: read-out: Log TGI (converted)
SF-295 = test: Growth inhibition of human SF295 cells after 48 hrs by SRB protein assay; details: SF-295, 48 h; for TGI: read-out: Log TGI (converted)
HL-60 = test: Growth inhibition of human HL60 cells after 48 hrs by SRB protein assay; details: HL-60, 48 h; for TGI: read-out: Log TGI (converted)
NCI-H226 = test: Growth inhibition of human NCI-H226 cells after 48 hrs by SRB protein assay; details: NCI-H226, 48 h; for TGI: read-out: Log TGI (converted)
A498 = test: Growth inhibition of human A498 cells after 48 hrs by SRB protein assay; details: A498, 48 h; for TGI: read-out: Log TGI (converted)
DU-145 = test: Growth inhibition of human DU145 cells after 48 hrs by SRB protein assay; details: DU-145, 48 h; for TGI: read-out: Log TGI (converted)
HCC 2998 = test: Growth inhibition of human HCC2998 cells after 48 hrs by SRB protein assay; details: HCC 2998, 48 h; for TGI: read-out: Log TGI (converted)
SF-539 = test: Growth inhibition of human SF539 cells after 48 hrs by SRB protein assay; details: SF-539, 48 h; for TGI: read-out: Log TGI (converted)
SR = test: Growth inhibition of human SR cells after 48 hrs by SRB protein assay

Structure (SMILES)	TGI (EKVX) [µM]	Activity (MCF7) [%]	GI50 (SF-268) [µM]	TGI (SF-268) [µM]	GI50 (OVCAR-8) [µM]	TGI (OVCAR-8) [µM]	GI50 (T47D) [µM]	TGI (T47D) [µM]	GI50 (RPMI-8226) [µM]	TGI (RPMI-8226) [µM]	GI50 (SN12C) [µM]	TGI (SN12C) [µM]	GI50 (OVCAR-3) [µM]	TGI (OVCAR-3) [µM]	GI50 (Hs-578T) [µM]	TGI (Hs-578T) [µM]	GI50 (CAKI-1) [µM]	TGI (CAKI-1) [µM]	GI50 (SF-295) [µM]	TGI (SF-295) [µM]	other results
O=C(CC1Sc2ncnn2C1=O)Nc1ccccc1 (stereo not given)	64.6	0	> 100	> 100	25.7	60.3	39.8	> 100	20.9	64.6	27.5	67.6	34.7	> 100	12.3	45.7	23.4	49	> 100	> 100	GI50 (NCI-H23): 0.115 µM; TGI (NCI-H23): 9.12 µM; GI50 [1]: 19.1 µM; TGI [1]: 38.9 µM; GI50 (SNB-19): > 100 µM; TGI (SNB-19): > 100 µM; GI50 (SNB-75): 31.6 µM; TGI (SNB-75; read-out: Log TGI (converted)): 85.1 µM
COc1ccc(NC(=O)CC2Sc3ncnn3C2=O)cc1 (stereo not given)	> 100	0	> 100	> 100	22.4	46.8	37.2	> 100	25.1	64.6	25.1	56.2	18.6	38	25.7	44.7	18.6	34.7	> 100	> 100	GI50 (EKVX): 35.5 µM; GI50 (NCI-H23): 20 µM; TGI (NCI-H23): 37.2 µM; GI50 (HL-60): 27.5 µM; TGI (HL-60): > 100 µM; GI50 (NCI-H226): 22.9 µM; TGI (NCI-H226): 42.7 µM; GI50 (A498): 21.4 µM; TGI (A498): 57.5 µM; GI50 [1]: 21.4 µM; TGI [1]: 38.9 µM; GI50 (DU-145): 57.5 µM; TGI (DU-145): > 100 µM; GI50 (HCC 2998): > 100 µM; TGI (HCC 2998): > 100 µM; GI50 (SF-539): 26.9 µM; TGI (SF-539): 55 µM
O=C(CC1Sc2ncnn2C1=O)Nc1ccc(Cl)cc1 (stereo not given)	> 100	0	> 100	> 100	> 100	> 100	24	61.7	24	100	22.9	53.7	21.9	51.3	> 100	> 100	> 100	> 100	> 100	> 100	GI50 (EKVX): > 100 µM; GI50 (NCI-H23): 23.4 µM; TGI (NCI-H23): 70.8 µM; GI50 (NCI-H226): 91.2 µM; TGI (NCI-H226): > 100 µM; GI50 (A498): > 100 µM; TGI (A498): > 100 µM; GI50 [1]: 31.6 µM; TGI [1]: 83.2 µM; GI50 (DU-145): > 100 µM; TGI (DU-145): > 100 µM; GI50 (SNB-19): > 100 µM; TGI (SNB-19): > 100 µM; GI50 (HCC 2998): 38 µM; TGI (HCC 2998): > 100 µM; GI50 (SF-539): 31.6 µM; TGI (SF-539): 74.1 µM
O=C(CC1Sc2ncnn2C1=O)Nc1ccc(Br)cc1 (stereo not given)	> 100	0	> 100	> 100	18.2	38	18.2	45.7	23.4	64.6	22.9	63.1	20	37.2	7.24	20	20.4	43.7	> 100	> 100	GI50 (EKVX): 31.6 µM; GI50 (NCI-H23): 20.9 µM; TGI (NCI-H23): 43.7 µM; GI50 (HL-60): 19.5 µM; TGI (HL-60): > 100 µM; GI50 (SR): 18.2 µM; TGI (SR; read-out: Log TGI (converted)): > 100 µM; GI50 (NCI-H226): 20 µM; TGI (NCI-H226): 45.7 µM; GI50 (A498): 12.3 µM; TGI (A498): 57.5 µM; GI50 [1]: 17 µM; TGI [1]: 36.3 µM; GI50 (DU-145): 38.9 µM; TGI (DU-145): > 100 µM; GI50 (HCC 2998): > 100 µM; TGI (HCC 2998): > 100 µM; GI50 (SF-539): 20.9 µM; TGI (SF-539): 46.8 µM
CCOC(=O)c1ccc(NC(=O)CC2Sc3ncnn3C2=O)cc1 (stereo not given)	69.2	0	> 100	> 100	> 100	> 100	23.4	57.5	4.57	9.77	26.3	87.1	45.7	> 100	> 100	> 100	63.1	> 100	> 100	> 100	GI50 (EKVX): 28.2 µM; GI50 (HL-60): 46.8 µM; TGI (HL-60): > 100 µM; GI50 (NCI-H226): 26.3 µM; TGI (NCI-H226): 66.1 µM; GI50 (SNB-19): > 100 µM; TGI (SNB-19): > 100 µM; GI50 (HCC 2998): 18.2 µM; TGI (HCC 2998): 32.4 µM
